{
  "source": "patent US10100045B2",
  "about": "“3-aryl-2H-pyrazolo[4,3-b]pyridine compounds and their use as AMPA receptor modulators” (Janssen Pharmaceutica NV, priority 2016, dated 2018)",
  "data": [
    {"target": "GluA1o-γ8 (GRIA1o-CACNG8 fusion construct; TARP γ8 dependent AMPA receptor) (Homo sapiens (Human), UniProt P42261+Q8WXS5)", "sequence (P42261 other isoform, or with tags, fused parts or gaps)": "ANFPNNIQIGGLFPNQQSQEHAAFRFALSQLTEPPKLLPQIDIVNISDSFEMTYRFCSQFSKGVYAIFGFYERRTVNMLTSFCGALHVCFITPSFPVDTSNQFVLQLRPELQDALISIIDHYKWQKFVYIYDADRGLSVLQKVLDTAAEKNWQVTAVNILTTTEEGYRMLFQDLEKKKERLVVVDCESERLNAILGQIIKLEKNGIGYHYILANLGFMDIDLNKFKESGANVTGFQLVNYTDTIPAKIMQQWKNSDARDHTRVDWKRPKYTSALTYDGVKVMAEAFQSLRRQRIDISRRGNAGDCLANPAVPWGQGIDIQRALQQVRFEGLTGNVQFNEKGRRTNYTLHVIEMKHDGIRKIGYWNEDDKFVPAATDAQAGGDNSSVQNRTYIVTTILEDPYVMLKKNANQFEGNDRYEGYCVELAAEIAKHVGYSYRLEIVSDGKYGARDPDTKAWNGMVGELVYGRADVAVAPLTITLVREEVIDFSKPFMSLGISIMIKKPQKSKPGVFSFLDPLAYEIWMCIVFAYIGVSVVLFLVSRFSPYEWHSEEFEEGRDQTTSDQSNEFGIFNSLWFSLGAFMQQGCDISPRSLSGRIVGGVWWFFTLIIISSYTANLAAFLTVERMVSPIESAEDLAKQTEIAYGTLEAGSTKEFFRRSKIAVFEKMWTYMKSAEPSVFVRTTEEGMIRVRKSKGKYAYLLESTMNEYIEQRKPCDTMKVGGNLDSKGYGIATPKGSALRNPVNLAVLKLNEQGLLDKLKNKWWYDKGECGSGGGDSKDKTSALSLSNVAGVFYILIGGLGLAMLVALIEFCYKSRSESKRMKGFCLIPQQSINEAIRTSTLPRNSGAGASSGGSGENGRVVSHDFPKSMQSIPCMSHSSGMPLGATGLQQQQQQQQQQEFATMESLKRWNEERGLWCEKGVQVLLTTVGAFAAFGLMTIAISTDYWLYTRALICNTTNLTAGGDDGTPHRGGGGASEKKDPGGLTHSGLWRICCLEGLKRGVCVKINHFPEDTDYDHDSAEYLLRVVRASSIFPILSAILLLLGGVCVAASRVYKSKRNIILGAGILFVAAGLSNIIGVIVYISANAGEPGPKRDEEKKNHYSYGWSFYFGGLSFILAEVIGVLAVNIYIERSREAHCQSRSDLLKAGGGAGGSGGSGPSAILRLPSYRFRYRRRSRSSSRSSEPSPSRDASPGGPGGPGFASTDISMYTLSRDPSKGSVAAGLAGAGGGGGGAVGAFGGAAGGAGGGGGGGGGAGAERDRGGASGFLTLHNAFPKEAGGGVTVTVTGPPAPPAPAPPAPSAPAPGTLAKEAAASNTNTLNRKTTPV", "test": "Calcium flux assay (FLIPR), inhibition of glutamate response of GluA1o-γ8 channel", "type": "cell-based", "conditions": "HEK293 cells stably expressing GRIA1o-CACNG8 fusion; 15 μM glutamate; negative log of the IC50 in molar", "description": "This assay was used to test compounds for their ability to inhibit TARP γ8 dependent AMPA receptor activity. The AMPA receptor is a non-selective cation channel activated by glutamate. Ionotropic glutamate receptors normally desensitize too rapidly to allow detectable calcium influx in a FLIPR assay (Strange et al. (2006). “Functional characterisation of homomeric ionotropic glutamate receptors GluR1-GluR6 in a fluorescence-based high throughput screening assay.” Comb Chem High Throughput Screen 9(2): 147-158). But, this desensitization is incomplete, and a substantial steady-state current remains in the sustained presence of glutamate (Cho et al. (2007). “Two families of TARP isoforms that have distinct effects on the kinetic properties of AMPA receptors and synaptic currents.” Neuron 55(6): 890-904). An in vitro assay was used to determine the potency of test compounds as inhibitors of the glutamate response of the channel formed by GluA1o-γ8. To ensure a 1:1 stoichiometry of GluA1o and γ8 subunits in the expressed channel, a fusion of the cDNAs for GRIA1o and CACNG8 was used. Following Shi et al (2009) “The stoichiometry of AMPA receptors and TARPs varies by neuronal cell type.” Neuron 62(5): 633-640), the C-terminus of the cDNA for GRIA1o was fused to the N-terminus of the cDNA for γ8. The linker sequence was QQQQQQQQQQEFAT. Channels expressed with this construct appear to have similar properties to channels formed by co-expression of GRIA1o with an excess of CACNG8 (Shi et al. 2009). A clonal cell line in HEK293 cells stably expressing this construct, with a geneticin selection marker, was generated for use in this assay.\nCell expressing the GRIA1o-CACNG8 fusion construct were grown in a monolayer in 96- or 384-well microtiter plates. They were washed with assay buffer (135 mM NaCl, 4 mM KCl, 3 mM CaCl2, 1 mM MgCl2, 5 mM glucose, 10 mM HEPES, pH 7.4, 300 mOs) using a Biotek EL405 plate washer. The cells were then loaded with a calcium-sensitive dye (Calcium-5 or Calcium-6, Molecular Devices) and the test compounds at a range of concentrations. Calcium flux following the addition of 15 μM glutamate was monitored using a Molecular Devices FLIPR Tetra. The fluorescence in each well was normalized to the fluorescence of negative and positive control wells. The negative control wells had no added compounds, and the positive control wells had been incubated with 10 μM CP465022 (a non-subtype-selective AMPA receptor antagonist) (Lazzaro et al. (2002). “Functional characterization of CP-465,022, a selective, noncompetitive AMPA receptor antagonist.” Neuropharmacology 42(2): 143-153). The responses to glutamate as functions of the test compound concentrations were fitted to a four-parameter logistic function. The fitted parameter corresponding to the midpoint was taken to be the potency of inhibition of the compound. The data in Table 3 below illustrates the observed potentcy for the compounds described herein. pIC50 refers to the negative log of the IC50 in molar.", "units": {"IC50": "pM"}, "values": [
      {"compound": "Cn1nc2ccc(C(F)(F)F)nc2c1-c1ccc2[nH]c(=O)[nH]c2c1", "note": "[Example 1, 5-(2-Methyl-5-(trifluoromethyl)-2H-pyrazolo[4,3-b]pyridin-3-yl)-1,3-dihydro-2H-benzo[d]imidazol-2-one]", "pIC50": 6.5},
      {"compound": "CC(C)n1nc2ccc(C(F)(F)F)nc2c1-c1ccc2[nH]c(=O)[nH]c2c1", "note": "[Example 5, 5-(2-Isopropyl-5-(trifluoromethyl)-2H-pyrazolo[4,3-b]pyridin-3-yl)-1,3-dihydro-2H-benzo[d]imidazol-2-one]", "pIC50": 7.6},
      {"compound": "Cc1cc(-c2c3nc(C(F)(F)F)ccc3nn2C)cc2c1NC(=O)C2", "note": "[Example 2, 7-Methyl-5-(2-methyl-5-(trifluoromethyl)-2H-pyrazolo[4,3-b]pyridin-3-yl)indolin-2-one]", "pIC50": 7.9},
      {"compound": "FC(F)(F)c1ccc2nn(-c3ccccn3)c(-c3ccc4[nH]ncc4c3)c2n1", "note": "[Example 14, 3-(1H-Indazol-5-yl)-2-(pyridin-2-yl)-5-(trifluoromethyl)-2H-pyrazolo[4,3-b]pyridine]", "pIC50": 6.9},
      {"compound": "CCn1nc2ccc(C(F)(F)F)nc2c1-c1cc(C)c2[nH]ncc2c1", "note": "[Example 19, 2-Ethyl-3-(7-methyl-1H-indazol-5-yl)-5-(trifluoromethyl)-2H-pyrazolo[4,3-b]pyridine]", "IC50": 794},
      {"compound": "CCn1nc2ccc(C(F)(F)F)nc2c1-c1ccc2[nH]c(=O)[nH]c2c1", "note": "[Example 4, 5-(2-Ethyl-5-(trifluoromethyl)-2H-pyrazolo[4,3-b]pyridin-3-yl)-1,3-dihydro-2H-benzo[d]imidazol-2-one]", "pIC50": 7.0},
      {"compound": "CCn1nc2ccc(C(F)(F)F)nc2c1-c1cc(Cl)c2c(c1)CC(=O)N2", "note": "[Example 18, 7-Chloro-5-(2-ethyl-5-(trifluoromethyl)-2H-pyrazolo[4,3-b]pyridin-3-yl)indolin-2-one]", "pIC50": 8.6},
      {"compound": "Cc1cc(-c2c3nc(C(F)(F)F)ccc3nn2C2CCC2)cc2c1NC(=O)C2", "note": "[Example 25, 5-(2-Cyclobutyl-5-(trifluoromethyl)-2H-pyrazolo[4,3-b]pyridin-3-yl)-7-methylindolin-2-one]", "pIC50": 10.3},
      {"compound": "FC(F)n1nc2ccc(C(F)(F)F)nc2c1-c1cc(Cl)c2[nH]ncc2c1", "note": "[Example 31, 3-(7-Chloro-1H-indazol-5-yl)-2-(difluoromethyl)-5-(trifluoromethyl)-2H-pyrazolo[4,3-b]pyridine]", "pIC50": 9.2},
      {"compound": "Cc1cc(-c2c3nc(C(F)F)ccc3nn2C(C)C)cc2cn[nH]c12", "note": "[Example 34, 5-(Difluoromethyl)-2-isopropyl-3-(7-methyl-1H-indazol-5-yl)-2H-pyrazolo[4,3-b]pyridine]", "pIC50": 10.0},
      {"compound": "O=c1[nH]c2ccc(-c3c4nc(C(F)(F)F)ccc4nn3CC3CCC3)cc2[nH]1", "note": "[Example 6, 5-(2-(Cyclobutylmethyl)-5-(trifluoromethyl)-2H-pyrazolo[4,3-b]pyridin-3-yl)-1,3-dihydro-2H-benzo[d]imidazol-2-one]", "pIC50": 6.9},
      {"compound": "Cc1cc(-c2c3nc(C(F)(F)F)ccc3nn2C2CCC2)cc2cn[nH]c12", "note": "[Example 27, 2-Cyclobutyl-3-(7-methyl-1H-indazol-5-yl)-5-(trifluoromethyl)-2H-pyrazolo[4,3-b]pyridine]", "pIC50": 10.7},
      {"compound": "O=C1Cc2cc(-c3c4nc(C(F)(F)F)ccc4nn3C3CCC3)cc(Cl)c2N1", "note": "[Example 26, 7-Chloro-5-(2-cyclobutyl-5-(trifluoromethyl)-2H-pyrazolo[4,3-b]pyridin-3-yl)indolin-2-one]", "pIC50": 10.5},
      {"compound": "CC(C)n1nc2ccc(C(F)(F)F)nc2c1-c1cc(Cl)c2c(c1)CC(=O)N2", "note": "[Example 22, 7-Chloro-5-(2-isopropyl-5-(trifluoromethyl)-2H-pyrazolo[4,3-b]pyridin-3-yl)indolin-2-one]", "pIC50": 9.6},
      {"compound": "Cc1cc(-c2c3nc(C(F)F)cc(C(F)F)c3nn2C(C)C)cc2cn[nH]c12", "note": "[Example 40, 5,7-Bis(difluoromethyl)-2-isopropyl-3-(7-methyl-1H-indazol-5-yl)pyrazolo[4,3-b]pyridine]", "pIC50": 9.8},
      {"compound": "Cc1cc(-c2c3nccc(C(F)F)c3nn2C(C)C)cc2cn[nH]c12", "note": "[Example 38, 7-(Difluoromethyl)-2-isopropyl-3-(7-methyl-1H-indazol-5-yl)pyrazolo[4,3-b]pyridine]", "pIC50": 6.9},
      {"compound": "FC(F)(F)c1ccc2nn(-c3ccccc3)c(-c3ccc4[nH]ncc4c3)c2n1", "note": "[Example 11, 3-(1H-Indazol-5-yl)-2-phenyl-5-(trifluoromethyl)-2H-pyrazolo[4,3-b]pyridine]", "pIC50": 8.5},
      {"compound": "Cc1cc(-c2c3nc(C(F)(F)F)ccc3nn2C(C)C)cc2cn[nH]c12", "note": "[Example 23, 2-Isopropyl-3-(7-methyl-1H-indazol-5-yl)-5-(trifluoromethyl)-2H-pyrazolo[4,3-b]pyridine]", "pIC50": 9.6},
      {"compound": "FC(F)(F)c1ccc2nn(C3CCC3)c(-c3cc(Cl)c4[nH]ncc4c3)c2n1", "note": "[Example 28, 3-(7-Chloro-1H-indazol-5-yl)-2-cyclobutyl-5-(trifluoromethyl)-2H-pyrazolo[4,3-b]pyridine]", "pIC50": 10.7},
      {"compound": "Cn1nc2ccc(C(F)(F)F)nc2c1-c1cc(Cl)c2[nH]ncc2c1", "note": "[Example 16, 3-(7-Chloro-1H-indazol-5-yl)-2-methyl-5-(trifluoromethyl)-2H-pyrazolo[4,3-b]pyridine]", "pIC50": 9.5},
      {"compound": "CC(C)n1nc2ccc(C(F)F)nc2c1-c1cc(Cl)c2c(c1)CC(=O)N2", "note": "[Example 36, 7-Chloro-5-(5-(difluoromethyl)-2-isopropyl-2H-pyrazolo[4,3-b]pyridin-3-yl)indolin-2-one]", "pIC50": 9.4},
      {"compound": "CCn1nc2ccc(C(F)(F)F)nc2c1-c1cc(C)c2c(c1)CC(=O)N2", "note": "[Example 17, 5-(2-Ethyl-5-(trifluoromethyl)-2H-pyrazolo[4,3-b]pyridin-3-yl)-7-methylindolin-2-one]", "pIC50": 8.3},
      {"compound": "O=C1Cc2cc(-c3c4nc(C(F)(F)F)ccc4nn3-c3ccccc3)ccc2N1", "note": "[Example 10, 5-(2-Phenyl-5-(trifluoromethyl)-2H-pyrazolo[4,3-b]pyridin-3-yl)indolin-2-one]", "pIC50": 8.2},
      {"compound": "O=c1[nH]c2ccc(-c3c4nc(C(F)(F)F)ccc4nn3-c3ccccc3)cc2[nH]1", "note": "[Example 9, 5-(2-Phenyl-5-(trifluoromethyl)-2H-pyrazolo[4,3-b]pyridin-3-yl)-1,3-dihydro-2H-benzo[d]imidazol-2-one]", "pIC50": 8.8},
      {"compound": "CC(C)n1nc2cccnc2c1-c1cc(Cl)c2[nH]ncc2c1", "note": "[Example 39, 3-(7-Chloro-1H-indazol-5-yl)-2-isopropyl-pyrazolo[4,3-b]pyridine]", "pIC50": 7.2},
      {"compound": "Cc1cc(-c2c3nc(C(F)(F)F)ccc3nn2C(C)C)cc2c1NC(=O)C2", "note": "[Example 21, 5-(2-Isopropyl-5-(trifluoromethyl)-2H-pyrazolo[4,3-b]pyridin-3-yl)-7-methylindolin-2-one]", "pIC50": 9.4},
      {"compound": "O=C1Cc2cc(-c3c4nc(C(F)(F)F)ccc4nn3C(F)F)cc(Cl)c2N1", "note": "[Example 29, 7-Chloro-5-(2-(difluoromethyl)-5-(trifluoromethyl)-2H-pyrazolo[4,3-b]pyridin-3-yl)indolin-2-one]", "pIC50": 8.6},
      {"compound": "FC(F)(F)c1ccc2nn(C3CCC3)c(-c3ccc4[nH]ncc4c3)c2n1", "note": "[Example 12, 2-Cyclobutyl-3-(1H-indazol-5-yl)-5-(trifluoromethyl)-2H-pyrazolo[4,3-b]pyridine]", "pIC50": 9.2},
      {"compound": "COCCn1nc2ccc(C(F)(F)F)nc2c1-c1ccc2[nH]ncc2c1", "note": "[Example 13, 3-(1H-Indazol-5-yl)-2-(2-methoxyethyl)-5-(trifluoromethyl)-2H-pyrazolo[4,3-b]pyridine]", "pIC50": 6.1}
    ]}
  ]
}
